Patent US20130130306A1, “ZN (II) BASED COLORIMETRIC SENSOR AND PROCESS FOR THE PREPARATION THEREOF” (COUNCIL OF SCIENTIFIC & INDUSTRIAL RESEARCH, priority 2010, published 2013)

Assays:
[1] = UV-vis spectral response and spectrophotometric titration with ADP; type: binding
Procedure: In order to examine the binding behaviour of the Zn-complex (L.Zn) (Scheme 1, Formula 1A) to various important anions (like ATP, CTP, ADP, AMP, PPi, H2PO4^−, SO4^2−, CH3CO2^−, I^−, Br^−, Cl^− and F^−) the following experiment was conducted. A solution (˜21 mM) for of sodium salts of ATP, CTP, ADP, AMP, PPi, H2PO4^−, SO4^−, CH3CO2^−, I^−, Br^−, Cl^−, and F^− were prepared using respective salt in 10 mM HEPES buffer solutions (pH 7.2) and was stored for use. Further, a solution (44.35 μM) of the compound L.Zn (Scheme 1, Formula 1A) was prepared using doubly-distilled and deionized water and stored. These stored solutions were used on the day of preparation of the solution for experiment. […]
A solution of L.Zn (Scheme 1, Formula 1A) (8.87 μM) in aqueous medium was treated with excess amount of ˜500 μM of different phosphate anions like H2PO4^−, PPi, AMP, ADP, ATP and CTP. […] Thus L.Zn (Scheme 1, Formula 1A) can bind ATP selectively among various phosphate anions and the color change associated with the binding of ATP can be detected through naked eye (FIG. 2). […]

[2] = Solubility in water without and with α-cyclodextrin; type: physicochemical
Procedure: Solubility of L.Zn (Scheme 1, Formula 1A) in water is limited (0.0448 gL^−1). However, this could be enhanced in presence of α-cyclodextrin (c-CD). 2.3 mg of L.Zn (Scheme 1, Formula 1A) was dissolved in 5 mL of double distilled water and stirred at 25 to 35° C. for 1 hour. […] Similar experiment was repeated in presence of α-CD. In this case 14.2 mg of α-CD was dissolved in 5 mL of double distilled water containing 2.913 mg of L.Zn (Scheme 1, Formula 1A) and this solution was stirred at 25° C. for 1 hour; while a solution with little suspended solid was obtained. This was filtered using G-4 gooch crucible. Filtrate was collected and optical density (O.D.) of the filtrate was monitored at 458 nm. Considering the complete formation of the inclusion complex (pseudorotaxane form), concentration was evaluated based on the known εLZn.α-CD value and the O.D. at 458 nm. […] L.Zn (Scheme 1, Formula 1A) present in aqueous solution in the pseudorotaxane form is being represented as L.Zn.CD in Scheme 2.

Compound: CN(C)c1ccc(N=Nc2ccc(S(=O)(=O)N3CCCNCCNCCCNCC3)cc2)cc1.O=[N+]([O-])[O-].O=[N+]([O-])[O-].[Zn+2] [L.Zn]
- color change on addition of ADP (naked eye) ([1]; L.Zn 8.87 μM in aqueous medium, ~500 μM anion): Slight color change
- binding constant for the formation of the complex L.Zn-ADP ([1]; spectrophotometric titration, pH 7.2, 10 mM HEPES, 25° C.): 142 (±15) M^−1
- L.Zn present in solution in presence of α-CD ([2]; 14.2 mg α-CD in 5 mL double distilled water, 25° C., O.D. at 458 nm): 0.34 g/L
- solubility in water ([2]; double distilled water, stirred 1 hour, from optical density of filtrate): 0.0448 gL^−1
- solubility in water ([2]; present reagent): completely soluble in water
- increase in solubility in presence of α-CD ([2]; water, with versus without α-CD): ~7.5 fold
